Experimental data: article PMC6430112 (Xenobiotica; the fate of foreign compounds in biological …, 2018)
Values joined by “and” are separate entries in the source; they are usually repeats but may differ in a detail not shown here. Equal entries are not always repeated.

Tests used:
CYP2A6 = molecular target: T1, CYP2A6 (Homo sapiens, UniProt P11509); experiment: Oxidation by purified CYP2A6 in reconstituted monooxygenase system, LC-MS/MS; type: in vitro ADME; conditions: substrate flavanone
T1 sequence (P11509 1-494): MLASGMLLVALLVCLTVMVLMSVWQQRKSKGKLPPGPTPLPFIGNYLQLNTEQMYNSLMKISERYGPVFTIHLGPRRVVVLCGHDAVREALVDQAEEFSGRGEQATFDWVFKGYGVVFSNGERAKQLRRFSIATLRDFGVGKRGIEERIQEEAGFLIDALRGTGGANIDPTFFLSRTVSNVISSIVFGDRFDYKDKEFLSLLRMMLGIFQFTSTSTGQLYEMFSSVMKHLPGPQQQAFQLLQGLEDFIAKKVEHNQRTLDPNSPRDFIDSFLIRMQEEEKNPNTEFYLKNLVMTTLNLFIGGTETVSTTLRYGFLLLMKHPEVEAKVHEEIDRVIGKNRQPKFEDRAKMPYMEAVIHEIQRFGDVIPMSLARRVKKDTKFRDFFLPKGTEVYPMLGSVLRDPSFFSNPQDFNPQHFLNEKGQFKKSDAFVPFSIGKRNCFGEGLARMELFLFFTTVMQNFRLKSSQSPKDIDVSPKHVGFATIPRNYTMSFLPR

rat liver microsomes = conditions: ref Kagawa et al. (2004); cited from earlier work
wild-type CYP2A6 = conditions: substrate flavanone, ref Uno et al. (2013; 2015); cited from earlier work
CYP1A2 = molecular target: T2, CYP1A2 (Homo sapiens, UniProt P05177); experiment: Oxidation by purified CYP1A2 in reconstituted monooxygenase system, LC-MS/MS; type: in vitro ADME; conditions: substrate flavanone
T2 sequence (P05177 1-516): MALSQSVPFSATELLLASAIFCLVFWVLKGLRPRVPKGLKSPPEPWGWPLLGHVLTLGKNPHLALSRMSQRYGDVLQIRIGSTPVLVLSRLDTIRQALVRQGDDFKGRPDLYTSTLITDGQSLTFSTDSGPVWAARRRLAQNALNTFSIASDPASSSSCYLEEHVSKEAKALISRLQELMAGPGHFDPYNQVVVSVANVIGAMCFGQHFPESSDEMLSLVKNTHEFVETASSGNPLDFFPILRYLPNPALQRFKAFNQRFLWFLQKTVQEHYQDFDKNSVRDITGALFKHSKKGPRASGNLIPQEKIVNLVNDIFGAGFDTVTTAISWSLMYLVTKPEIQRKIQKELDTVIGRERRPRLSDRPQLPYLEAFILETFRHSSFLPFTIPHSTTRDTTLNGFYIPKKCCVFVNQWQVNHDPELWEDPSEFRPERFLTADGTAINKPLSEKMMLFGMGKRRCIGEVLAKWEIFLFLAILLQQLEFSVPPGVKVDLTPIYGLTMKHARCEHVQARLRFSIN

CYP1B1 = molecular target: T3, CYP1B1 (Homo sapiens, UniProt Q16678); experiment: Oxidation by purified CYP1B1 in reconstituted monooxygenase system, LC-MS/MS; type: in vitro ADME; conditions: substrate flavanone
T3 sequence (Q16678 1-543): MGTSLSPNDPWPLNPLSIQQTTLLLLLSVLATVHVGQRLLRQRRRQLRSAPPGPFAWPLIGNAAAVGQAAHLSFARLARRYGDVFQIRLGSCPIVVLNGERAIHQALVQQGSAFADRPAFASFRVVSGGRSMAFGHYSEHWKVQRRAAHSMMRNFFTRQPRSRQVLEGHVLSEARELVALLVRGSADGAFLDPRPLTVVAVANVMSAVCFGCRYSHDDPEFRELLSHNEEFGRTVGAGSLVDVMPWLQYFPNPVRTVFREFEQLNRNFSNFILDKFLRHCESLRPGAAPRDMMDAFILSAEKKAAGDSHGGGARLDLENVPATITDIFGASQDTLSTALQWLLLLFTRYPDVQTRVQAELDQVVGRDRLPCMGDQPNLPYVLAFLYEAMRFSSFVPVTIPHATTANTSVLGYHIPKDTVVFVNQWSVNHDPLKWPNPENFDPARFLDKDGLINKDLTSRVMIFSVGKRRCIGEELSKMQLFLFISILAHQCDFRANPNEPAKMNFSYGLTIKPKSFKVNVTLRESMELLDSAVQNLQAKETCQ

CYP2A13 = molecular target: T4, CYP2A13 (Homo sapiens, UniProt Q16696); experiment: Oxidation by purified CYP2A13 in reconstituted monooxygenase system, LC-MS/MS; type: in vitro ADME; conditions: substrate flavanone
T4 sequence (Q16696 1-494): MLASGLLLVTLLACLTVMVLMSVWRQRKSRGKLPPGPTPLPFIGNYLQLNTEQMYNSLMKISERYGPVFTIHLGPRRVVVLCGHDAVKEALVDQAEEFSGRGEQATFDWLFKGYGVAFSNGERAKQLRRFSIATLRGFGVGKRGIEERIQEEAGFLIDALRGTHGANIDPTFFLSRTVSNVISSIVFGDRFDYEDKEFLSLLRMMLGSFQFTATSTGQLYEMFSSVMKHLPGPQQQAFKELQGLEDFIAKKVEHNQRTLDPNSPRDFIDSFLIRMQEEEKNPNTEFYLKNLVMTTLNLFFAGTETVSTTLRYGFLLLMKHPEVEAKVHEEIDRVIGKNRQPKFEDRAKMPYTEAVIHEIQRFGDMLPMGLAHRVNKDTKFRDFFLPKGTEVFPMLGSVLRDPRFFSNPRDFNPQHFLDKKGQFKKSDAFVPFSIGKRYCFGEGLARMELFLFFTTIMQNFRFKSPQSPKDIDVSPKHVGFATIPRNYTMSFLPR

CYP1A1 = molecular target: T5, CYP1A1 (Homo sapiens, UniProt P04798); experiment: Oxidation by purified CYP1A1 in reconstituted monooxygenase system, LC-MS/MS; type: in vitro ADME; conditions: substrate flavanone
T5 sequence (P04798 1-512): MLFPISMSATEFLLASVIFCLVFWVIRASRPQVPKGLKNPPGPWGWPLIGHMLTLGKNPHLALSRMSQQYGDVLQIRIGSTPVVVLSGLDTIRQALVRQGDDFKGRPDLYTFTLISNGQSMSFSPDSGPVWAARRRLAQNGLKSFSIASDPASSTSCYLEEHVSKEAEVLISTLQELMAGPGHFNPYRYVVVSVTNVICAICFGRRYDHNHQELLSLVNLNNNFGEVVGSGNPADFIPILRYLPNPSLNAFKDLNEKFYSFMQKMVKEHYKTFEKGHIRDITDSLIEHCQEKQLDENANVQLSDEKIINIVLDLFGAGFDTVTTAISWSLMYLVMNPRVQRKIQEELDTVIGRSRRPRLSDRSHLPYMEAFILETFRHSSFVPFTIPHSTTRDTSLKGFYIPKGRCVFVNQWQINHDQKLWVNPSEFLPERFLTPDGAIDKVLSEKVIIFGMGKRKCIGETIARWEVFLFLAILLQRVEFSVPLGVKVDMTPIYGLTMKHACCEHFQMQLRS

CYP3A4 = CYP3A4 (Homo sapiens, UniProt P08684); experiment: Oxidation by purified CYP3A4 in reconstituted monooxygenase system, LC-MS/MS; type: in vitro ADME; conditions: substrate flavanone
CYP2C9 = CYP2C9 (Homo sapiens, UniProt P11712); experiment: Oxidation by purified CYP2C9 in reconstituted monooxygenase system, LC-MS/MS; type: in vitro ADME; conditions: substrate flavanone
CYP2C9, sequence (P11712 whole entry): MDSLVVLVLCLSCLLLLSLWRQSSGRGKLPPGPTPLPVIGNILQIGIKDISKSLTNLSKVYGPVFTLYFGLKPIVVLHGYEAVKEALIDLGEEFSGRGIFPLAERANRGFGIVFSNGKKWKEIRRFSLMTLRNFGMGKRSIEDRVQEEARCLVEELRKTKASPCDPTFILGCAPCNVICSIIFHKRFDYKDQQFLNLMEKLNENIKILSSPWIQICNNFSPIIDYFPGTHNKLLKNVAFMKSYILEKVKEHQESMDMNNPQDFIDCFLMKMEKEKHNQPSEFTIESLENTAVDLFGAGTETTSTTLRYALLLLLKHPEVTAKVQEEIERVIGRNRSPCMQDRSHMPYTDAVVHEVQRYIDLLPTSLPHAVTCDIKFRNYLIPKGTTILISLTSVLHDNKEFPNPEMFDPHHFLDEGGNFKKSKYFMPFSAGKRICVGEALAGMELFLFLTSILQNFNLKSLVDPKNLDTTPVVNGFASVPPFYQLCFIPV

CYP3A4, sequence (P08684 whole entry): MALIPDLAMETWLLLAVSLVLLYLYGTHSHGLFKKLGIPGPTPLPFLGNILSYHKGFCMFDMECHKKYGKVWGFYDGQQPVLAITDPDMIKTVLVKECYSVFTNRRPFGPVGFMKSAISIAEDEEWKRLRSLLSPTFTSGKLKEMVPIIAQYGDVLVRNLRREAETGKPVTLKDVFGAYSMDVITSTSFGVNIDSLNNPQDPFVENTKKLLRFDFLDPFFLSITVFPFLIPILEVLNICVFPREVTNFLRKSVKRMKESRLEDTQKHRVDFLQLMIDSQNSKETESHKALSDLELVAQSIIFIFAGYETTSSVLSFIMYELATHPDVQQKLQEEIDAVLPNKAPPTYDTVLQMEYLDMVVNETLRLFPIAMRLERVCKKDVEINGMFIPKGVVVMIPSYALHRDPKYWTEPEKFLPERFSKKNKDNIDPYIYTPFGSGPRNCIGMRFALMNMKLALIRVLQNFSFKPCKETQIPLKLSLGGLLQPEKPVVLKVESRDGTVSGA

Formation of flavone and hydroxylated products: 2´-OHFva (CYP2A6; CYP2A6): 4.76 ± 0.32 nmol/min/nmol P450 | Formation of flavone and hydroxylated products: 3´-OHFva (CYP2A6; CYP2A6): 0.031 ± 0.003 nmol/min/nmol P450 | Formation of flavone and hydroxylated products: 4’´-OHFva (CYP2A6; CYP2A6): 0.20 ± 0.01 nmol/min/nmol P450 | Formation of flavone and hydroxylated products: 6OHF (CYP2A6; CYP2A6): 0.003 ± 0.001 nmol/min/nmol P450 | Formation of flavone and hydroxylated products: 6OHFva (CYP2A6; CYP2A6): 1.29 ± 0.08 nmol/min/nmol P450 | Formation of flavone and hydroxylated products: 7OHF (CYP2A6; CYP2A6): <0.001 nmol/min/nmol P450 | Formation of flavone and hydroxylated products: 7OHFva (CYP2A6; CYP2A6): <0.001 nmol/min/nmol P450 | Formation of flavone and hydroxylated products: Flavone (CYP2A6; CYP2A6): 0.72 ± 0.06 nmol/min/nmol P450 | Turnover number of 2´OHFva formation (CYP2A6; CYP2A6): 4.8 nmol/min/nmol CYP2A6 | Turnover number of 6OHFva formation (CYP2A6; CYP2A6): 1.3 nmol/min/nmol CYP2A6 | Turnover number of flavone formation (CYP2A6; CYP2A6): 0.72 nmol/min/nmol CYP2A6 | Turnover rate of 2´-hydroxyflavanone formation (CYP2A6; CYP2A6): 4.8 min⁻¹ and 4.76 min⁻¹ | Turnover rate of 6-hydroxyflavanone formation (CYP2A6; CYP2A6): 1.3 min⁻¹ and 1.29 min⁻¹ | Turnover rate of flavone formation (CYP2A6; CYP2A6): 0.72 min⁻¹ | Flavone formation turnover rate by CYP2A6 relative to CYP2A13 (CYP2A6; CYP2A6 higher than CYP2A13): ~ 3 fold | Formation of flavone and hydroxylated products: 2´-OHFva (CYP1A2): 0.074 ± 0.012 nmol/min/nmol P450 | Formation of flavone and hydroxylated products: 3´-OHFva (CYP1A2): 0.117 ± 0.023 nmol/min/nmol P450 | Formation of flavone and hydroxylated products: 4’´-OHFva (CYP1A2): 0.33 ± 0.05 nmol/min/nmol P450 | Formation of flavone and hydroxylated products: 6OHF (CYP1A2): <0.001 nmol/min/nmol P450 | Formation of flavone and hydroxylated products: 6OHFva (CYP1A2): 0.19 ± 0.02 nmol/min/nmol P450 | Formation of flavone and hydroxylated products: 7OHF (CYP1A2): 0.002 ± 0.002 nmol/min/nmol P450 | Formation of flavone and hydroxylated products: 7OHFva (CYP1A2): 0.009 ± 0.001 nmol/min/nmol P450 | Formation of flavone and hydroxylated products: Flavone (CYP1A2): 0.008 ± 0.001 nmol/min/nmol P450 | Formation of flavone and hydroxylated products: 2´-OHFva (CYP1B1): 0.046 ± 0.009 nmol/min/nmol P450 | Formation of flavone and hydroxylated products: 3´-OHFva (CYP1B1): 0.013 ± 0.002 nmol/min/nmol P450 | Formation of flavone and hydroxylated products: 4’´-OHFva (CYP1B1): 0.19 ± 0.04 nmol/min/nmol P450 | Formation of flavone and hydroxylated products: 6OHF (CYP1B1): 0.002 ± 0.001 nmol/min/nmol P450 | Formation of flavone and hydroxylated products: 6OHFva (CYP1B1): 0.33 ± 0.05 nmol/min/nmol P450 | Formation of flavone and hydroxylated products: 7OHF (CYP1B1): <0.001 nmol/min/nmol P450 | Formation of flavone and hydroxylated products: 7OHFva (CYP1B1): 0.003 ± 0.001 nmol/min/nmol P450 | Formation of flavone and hydroxylated products: Flavone (CYP1B1): 0.046 ± 0.002 nmol/min/nmol P450 | Formation of flavone and hydroxylated products: 2´-OHFva (CYP2A13): 0.027 ± 0.002 nmol/min/nmol P450 | Formation of flavone and hydroxylated products: 3´-OHFva (CYP2A13): 0.011 ± 0.004 nmol/min/nmol P450 | Formation of flavone and hydroxylated products: 4’´-OHFva (CYP2A13): 0.013 ± 0.001 nmol/min/nmol P450 | Formation of flavone and hydroxylated products: 6OHF (CYP2A13): 0.004 ± 0.001 nmol/min/nmol P450 | Formation of flavone and hydroxylated products: 6OHFva (CYP2A13): 0.17 ± 0.01 nmol/min/nmol P450 | Formation of flavone and hydroxylated products: 7OHF (CYP2A13): <0.001 nmol/min/nmol P450 | Formation of flavone and hydroxylated products: 7OHFva (CYP2A13): 0.005 ± 0.001 nmol/min/nmol P450 | Formation of flavone and hydroxylated products: Flavone (CYP2A13): 0.29 ± 0.02 nmol/min/nmol P450 | Turnover rate of flavone formation (CYP2A13): 0.29 min⁻¹ | Formation of flavone and hydroxylated products: 2´-OHFva (CYP1A1): 0.008 ± 0.004 nmol/min/nmol P450 | Formation of flavone and hydroxylated products: 3´-OHFva (CYP1A1): 0.004 ± 0.002 nmol/min/nmol P450 | Formation of flavone and hydroxylated products: 4’´-OHFva (CYP1A1): 0.074 ± 0.002 nmol/min/nmol P450 | Formation of flavone and hydroxylated products: 6OHF (CYP1A1): 0.002 ± 0.001 nmol/min/nmol P450 | Formation of flavone and hydroxylated products: 6OHFva (CYP1A1): 0.058 ± 0.008 nmol/min/nmol P450 | Formation of flavone and hydroxylated products: 7OHF (CYP1A1): <0.001 nmol/min/nmol P450 | Formation of flavone and hydroxylated products: 7OHFva (CYP1A1): 0.007 ± 0.003 nmol/min/nmol P450 | Formation of flavone and hydroxylated products: Flavone (CYP1A1): 0.053 ± 0.003 nmol/min/nmol P450 | Formation of flavone and hydroxylated products: 2´-OHFva (CYP3A4): <0.001 nmol/min/nmol P450 | Formation of flavone and hydroxylated products: 3´-OHFva (CYP3A4): <0.001 nmol/min/nmol P450 | Formation of flavone and hydroxylated products: 4’´-OHFva (CYP3A4): <0.001 nmol/min/nmol P450 | Formation of flavone and hydroxylated products: 6OHF (CYP3A4): <0.001 nmol/min/nmol P450 | Formation of flavone and hydroxylated products: 6OHFva (CYP3A4): <0.001 nmol/min/nmol P450 | Formation of flavone and hydroxylated products: 7OHF (CYP3A4): <0.001 nmol/min/nmol P450 | Formation of flavone and hydroxylated products: 7OHFva (CYP3A4): <0.001 nmol/min/nmol P450 | Formation of flavone and hydroxylated products: Flavone (CYP3A4): 0.057 ± 0.011 nmol/min/nmol P450 | Formation of flavone and hydroxylated products: 2´-OHFva (CYP2C9): 0.012 ± 0.001 nmol/min/nmol P450 | Formation of flavone and hydroxylated products: 3´-OHFva (CYP2C9): 0.003± 0.001 nmol/min/nmol P450 | Formation of flavone and hydroxylated products: 4’´-OHFva (CYP2C9): 0.040± 0.001 nmol/min/nmol P450 | Formation of flavone and hydroxylated products: 6OHF (CYP2C9): <0.001 nmol/min/nmol P450 | Formation of flavone and hydroxylated products: 6OHFva (CYP2C9): 0.091± 0.001 nmol/min/nmol P450 | Formation of flavone and hydroxylated products: 7OHF (CYP2C9): <0.001 nmol/min/nmol P450 | Formation of flavone and hydroxylated products: 7OHFva (CYP2C9): <0.001 nmol/min/nmol P450 | Formation of flavone and hydroxylated products: Flavone (CYP2C9): 0.009 ± 0.002 nmol/min/nmol P450
SMILES: O=C1CC(c2ccccc2)Oc2ccccc21 (stereo not drawn) [flavanone]
Kinetic deuterium isotope effect for conversion of flavanone to flavone (rat liver microsomes): 1.5 | Turnover number of formation of 2´-hydroxyflavanone (wild-type CYP2A6): 0.32 min⁻¹
